Measurements: patent publication US4973675A, “Hybrid nitrosoureidoanthracyclines having antitumor activity” (University of Tennessee Research Center, priority 1989, dated 1990)
Entries after “also recorded” stand apart in the source; their conditions may differ.

How the values were obtained:
[1] = test system: human CEM leukemic lymphocytes; assay: Growth inhibition of human CEM leukemic lymphocyte suspension cultures, 48 h continuous drug exposure (ID50); type: cell-based
Description: (§1) Culture and bioassay conditions were as described in Cancer Chemotherapy Pharmacology 20:277 (1987) "Comparative Effects of Adriamycin and DNA-nonbinding Analogues on DNA, RNA, and Protein Synthesis in Vitro", Israel et al., except that cell counts were determined by hemocytometer rather than by automated cell counting.

[2] = test system: murine L1210 leukemia cells; assay: Clonogenic assay with cultured murine L1210 leukemia cells, 1 h drug exposure (LD90); type: cell-based
Description: as §1
+Dose killing 90% of clonogens, 1hr. drug exposure.

[3] = test system: murine P388 leukemia; assay: In vivo antitumor activity vs. murine P388 (P388/S) leukemia; design: species or system murine (B6D2F1 males)
Excerpt: Initial studies utilized a multiple dose schedule, with drug administered once daily on days 1, 2, 3 and 4. […] The marked activity of AD 312 in this system has been confirmed in multiple separate experiments.
Additional studies were done with AD 312 vs. murine P388/S under more demanding conditions of assay.
^a Summary results of 4 separate experiments. B6D2F1 males; 1 ×

[4] = P388/S, 17.5 mg/kg/day, days 1-4
[5] = P388/S, single dose 40.5 mg/kg day 1
[6] = P388/S, single dose 40.5 mg/kg day 3

SMILES: COc1cccc2c1C(=O)c1c(O)c3c(c(O)c1C2=O)C[C@@](O)(C(C)=O)C[C@@H]3O[C@H]1C[C@H](NC(=O)N(CCCl)N=O)[C@H](O)[C@H](C)O1 [AD 312, 2-chloroethylnitrosoureidodaunorubicin]
- growth inhibitory activity ([1]; CEM in vitro): moderate to marked growth inhibitory activity; also recorded: somewhat less active
- IC50 ([1]; Homo sapiens, Lymphocyte, CEM, 48 hr continuous drug exposure (Table 2), read-out: ID50 (the source's name)): 90 nM
- clonogenic cell kill ([2]; L1210, 1 hour exposure): most potent of the six agents compared
- IC90 ([2]; Mus musculus, L1210, 1 hr drug exposure, read-out: L1210 LD90 (dose killing 90% of clonogens)): 260 nM
- 60-day survival [3, 4]: 100%
- drug toxicity [3, 4]: without evidence of drug toxicity
- autopsy of surviving animals ([3]; P388/S, gross examination at termination): no evidence of tumor or other abnormalities was observed on gross examination
- 60-day survival [3, 5]: 100%
- antitumor effect [3, 5]: significant antitumor effect
- dose toxicity [3, 5]: nontoxic
- animals cured [3, 6]: 6 of 7
- day of the lone death [3, 6]: 45 days
- Long-term survivors ([3]; ip, 0.5 mg/kg qd 1-4): 0/7
- Median increase in lifespan ([3]; ip, 0.5 mg/kg qd 1-4): +10%
- Median survival ([3]; ip, 0.5 mg/kg qd 1-4): 11 days
- Net mean percent weight change, day 7 ([3]; ip, 0.5 mg/kg qd 1-4): +13%
- Range of deaths (dying animals) ([3]; ip, 0.5 mg/kg qd 1-4): 10 to 11 days
- Long-term survivors ([3]; ip, 1.0 mg/kg qd 1-4): 0/7
- Median increase in lifespan ([3]; ip, 1.0 mg/kg qd 1-4): +20%
- Median survival ([3]; ip, 1.0 mg/kg qd 1-4): 12 days
- Net mean percent weight change, day 7 ([3]; ip, 1.0 mg/kg qd 1-4): +6%
- Range of deaths (dying animals) ([3]; ip, 1.0 mg/kg qd 1-4): 11 to 18 days
- Long-term survivors ([3]; ip, 2.0 mg/kg qd 1-4 (Table 4)): 0/7
- Median increase in lifespan ([3]; ip, 2.0 mg/kg qd 1-4 (Table 4)): +30%
- Median survival ([3]; ip, 2.0 mg/kg qd 1-4 (Table 4)): 13 days
- Net mean percent weight change, day 7 ([3]; ip, 2.0 mg/kg qd 1-4 (Table 4)): +7%
- Range of deaths (dying animals) ([3]; ip, 2.0 mg/kg qd 1-4 (Table 4)): 12 to 14 days
- Long-term survivors ([3]; ip, 2.7 mg/kg qd 1-4): 0/7
- Median increase in lifespan ([3]; ip, 2.7 mg/kg qd 1-4): +60%
- Median survival ([3]; ip, 2.7 mg/kg qd 1-4): 16 days
- Net mean percent weight change, day 7 ([3]; ip, 2.7 mg/kg qd 1-4): +4%
- Range of deaths (dying animals) ([3]; ip, 2.7 mg/kg qd 1-4): 16 to 17 days
- Long-term survivors ([3]; ip, 4.0 mg/kg qd 1-4 (Table 4)): 0/7
- Median increase in lifespan ([3]; ip, 4.0 mg/kg qd 1-4 (Table 4)): +75%
- Median survival ([3]; ip, 4.0 mg/kg qd 1-4 (Table 4)): 17.5 days
- Net mean percent weight change, day 7 ([3]; ip, 4.0 mg/kg qd 1-4 (Table 4)): +2%
- Range of deaths (dying animals) ([3]; ip, 4.0 mg/kg qd 1-4 (Table 4)): 15 to 20 days
- Long-term survivors ([3]; ip, 6.0 mg/kg qd 1-4): 0/7
- Median increase in lifespan ([3]; ip, 6.0 mg/kg qd 1-4): +110%
- Median survival ([3]; ip, 6.0 mg/kg qd 1-4): 21 days
- Net mean percent weight change, day 7 ([3]; ip, 6.0 mg/kg qd 1-4): +4%
- Range of deaths (dying animals) ([3]; ip, 6.0 mg/kg qd 1-4): 19 to 24 days
- Median increase in lifespan ([3]; ip, 9.0 mg/kg qd 1-4): +250%
- Median survival ([3]; ip, 9.0 mg/kg qd 1-4): 35 days
- Net mean percent weight change, day 7 ([3]; ip, 9.0 mg/kg qd 1-4): -2%
- Range of deaths (dying animals) ([3]; ip, 9.0 mg/kg qd 1-4): 24 to 35 days
- Long-term survivors ([3]; ip, 9.0 mg/kg qd 1-4, sacrifice day 43): 3/7
- Median increase in lifespan ([3]; ip, 10.0 mg/kg qd 1-4): > +500%
- Net mean percent weight change, day 7 ([3]; ip, 10.0 mg/kg qd 1-4): -1%
- Range of deaths (dying animals) ([3]; ip, 10.0 mg/kg qd 1-4): 38 days
- Long-term survivors ([3]; ip, 10.0 mg/kg qd 1-4, sacrifice day 60): 5/7
- Median increase in lifespan ([3]; ip, 11.0 mg/kg qd 1-4): > +500%
- Net mean percent weight change, day 7 ([3]; ip, 11.0 mg/kg qd 1-4): +1%
- Range of deaths (dying animals) ([3]; ip, 11.0 mg/kg qd 1-4): 28 days
- Long-term survivors ([3]; ip, 11.0 mg/kg qd 1-4, sacrifice day 60): 5/6
- Long-term survivors ([3]; ip, 12.0 mg/kg day 1 only): 0/7
- Median increase in lifespan ([3]; ip, 12.0 mg/kg day 1 only): +100%
- Median survival ([3]; ip, 12.0 mg/kg day 1 only): 20 days
- Net mean percent weight change, day 7 ([3]; ip, 12.0 mg/kg day 1 only): +6%
- Range of death (dying animals) ([3]; ip, 12.0 mg/kg day 1 only): 16 to 22 days
- Median increase in lifespan ([3]; ip, 12.5 mg/kg qd 1-4): > +540%
